Source: US20240252488A1 (KOREA RESEARCH INSTITUTE OF CHEMICAL TECHNOLOGY, priority 2020, published 2024)

Key:
MLKL [1] = target: T1, MLKL (Homo sapiens, UniProt Q8NB16); test: Measurement of binding affinity with MLKL receptor (competitive binding assay, Kd); set-up: made in house; host or cells: HEK 293 cell line (T7 phage in E. coli BL21-derived host is also described)
T1 sequence (Q8NB16 1-471): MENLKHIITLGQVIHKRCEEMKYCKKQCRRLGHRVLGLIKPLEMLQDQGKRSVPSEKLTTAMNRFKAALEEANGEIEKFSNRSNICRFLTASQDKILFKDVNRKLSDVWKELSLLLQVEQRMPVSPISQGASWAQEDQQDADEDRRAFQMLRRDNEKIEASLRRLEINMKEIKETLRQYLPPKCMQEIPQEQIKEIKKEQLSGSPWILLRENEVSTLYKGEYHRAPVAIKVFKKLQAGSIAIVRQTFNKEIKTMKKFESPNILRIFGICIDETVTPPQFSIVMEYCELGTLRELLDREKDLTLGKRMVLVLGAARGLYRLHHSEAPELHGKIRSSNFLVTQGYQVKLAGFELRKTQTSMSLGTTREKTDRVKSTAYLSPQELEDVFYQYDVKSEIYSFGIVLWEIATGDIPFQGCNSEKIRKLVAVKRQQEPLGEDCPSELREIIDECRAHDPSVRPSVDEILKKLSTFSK
In short: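 Kd from an immobilized-ligand competition format: the DNA-tagged kinase from HEK 293 expression is eluted and quantified by qPCR. Compounds added from 111× DMSO stocks, final DMSO 0.9%.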

MLKL [2] = target: T1, MLKL; test: MLKL degradation assay in HepG2 cell line (western blot); format: cell-based; set-up: endogenous in cells; host or cells: HepG2 or HaCaT; details: cell line not given; for Degradation assay (Degradation %) 1 μM: compound 1 μM; for Degradation assay (Degradation %) 10 μM: compound 10 μM
In short: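 HepG2 cells were exposed to compound at a final 1 or 10 μM for 20-24 hours at 37 °C, 5% CO2. RIPA lysates were normalized by BCA assay, 10-15 μg protein resolved by SDS-PAGE, and MLKL levels detected by western blot with chemiluminescence.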

FADD−/− Jurkat cells = test: Necroptosis inhibition assay, TNF-α-induced necroptosis (CellTiter-Glo 2.0); format: cell-based, human; details: TNF-α 15 ng/mL; for Necroptosis inhibition assay (Rescue %) 1 μM: compound 1 μM; for Necroptosis inhibition assay (Rescue %) 10 μM: compound 10 μM
In short: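 Cells at 5.0×10^5 cells/mL were pretreated with compound (final 0.1, 1 and 10 μM) for 30 minutes at room temperature, then given TNF-α at 15 ng/mL final. After 20 to 24 hours at 37° C, 5% CO2, viability was read as ATP luminescence to calculate cytotoxicity and necroptosis inhibition rate.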

Compound | Kd (MLKL [1]) [nM] | Degradation assay (Degradation %) 1 μM (MLKL [2]) [%] | Degradation assay (Degradation %) 10 μM (MLKL [2]) [%] | Necroptosis inhibition assay (Rescue %) 1 μM (FADD−/− Jurkat cells) [%] | Necroptosis inhibition assay (Rescue %) 10 μM (FADD−/− Jurkat cells) [%] | Necroptosis inhibition assay (Rescue %) 1 μM (FADD−/− Jurkat cells; FADD−/− Jurkat cells) [%] | Necroptosis inhibition assay (Rescue %) 10 μM (FADD−/− Jurkat cells; FADD−/− Jurkat cells) [%]
Nc1ncc(-c2cnn(C3CCN(CC4CCN(C(=O)C5CCN(c6cccc7c6C(=O)N(C6CCC(=O)NC6=O)C7=O)CC5)CC4)CC3)c2)nc1C(=O)O[C@@H](C(=O)Nc1ccc(F)cc1)c1ccccc1 (stereo partly drawn) [TDH-146, (R)-2-((4-fluorophenyl)amino)-2-oxo-1-phenylethyl 3-amino-6-(1-(1-((1-(1-(2-(2,6-dioxopiperidin-3-yl)-1,3-dioxoisoindolin-4-yl)piperidine-4-carbonyl)piperidin-4-yl)methyl)piperidin-4-yl)-1H-pyrazol-4-yl)pyrazine-2-carboxylate] | 5.4 | 65.04 | 60.65 | 42.2 | 9.61 |  | 
Nc1ncc(-c2cnn(C3CCN(CCCCCCCCCCNC(=O)C4CN(c5ccc6nnn(C7CCC(=O)NC7=O)c(=O)c6c5)C4)CC3)c2)nc1C(=O)O[C@@H](C(=O)Nc1ccc(F)cc1)c1ccccc1 (stereo partly drawn) [TDH-178, (R)-2-((4-fluorophenyl)amino)-2-oxo-1-phenylethyl 3-amino-6-(1-(1-(10-(1-(3-(2,6-dioxopiperidin-3-yl)-4-oxo-3,4-dihydrobenzo[d][1,2,3]triazin-6-yl)azetidine-3-carboxamido)decyl)piperidin-4-yl)-1H-pyrazol-4-yl)pyrazine-2-carboxylate] | 73 | 72.12 | 84.5 | 24.45 | 28.25 |  | 
Nc1ncc(-c2cnn(C3CCN(C(=O)c4cn(C5CCN(C(=O)COc6cccc7c6C(=O)N(C6CCC(=O)NC6=O)C7=O)CC5)cn4)CC3)c2)nc1C(=O)O[C@@H](C(=O)Nc1ccc(F)cc1)c1ccccc1 (stereo partly drawn) [TDH-354, (R)-2-((4-fluorophenyl)amino)-2-oxo-1-phenylethyl 3-amino-6-(1-(1-(1-(1-(2-((2-(2,6-dioxopiperidin-3-yl)-1,3-dioxoisoindolin-4-yl)oxy)acetyl)piperidin-4-yl)-1H-imidazole-4-carbonyl)piperidin-4-yl)-1H-pyrazol-4-yl)pyrazine-2-carboxylate] | 1.4 | 68.16 | 66.72 | 31.96 | 35.2 |  | 
Nc1ncc(-c2ccc(N3CCN(CCOCCOCCNC(=O)CNc4ccc5c(c4)C(=O)N(C4CCC(=O)NC4=O)C5=O)CC3)nc2)nc1C(=O)OC(C(=O)Nc1ccc(F)cc1)c1ccccc1 (stereo not drawn) [TDH-260, 2-((4-fluorophenyl)amino)-2-oxo-1-phenylethyl 3-amino-6-(6-(4-(2-(2-(2-(2-((2-(2,6-dioxopiperidin-3-yl)-1,3-dioxoisoindolin-5-yl)amino)acetamido)ethoxy)ethoxy)ethyl)piperazin-1-yl)pyridin-3-yl)pyrazine-2-carboxylate] | 18 | 38.65 | 53.35 | 14.46 | 13.52 |  | 
Nc1ncc(-c2cnn(C3CCN(CCCCCCNC(=O)C4CCN(c5ccc6c(c5)C(=O)N(C5CCC(=O)NC5=O)C6=O)CC4)CC3)c2)nc1C(=O)O[C@@H](C(=O)Nc1ccc(F)cc1)c1ccccc1 (stereo partly drawn) [TDH-109, (R)-2-((4-fluorophenyl)amino)-2-oxo-1-phenylethyl 3-amino-6-(1-(1-(6-(1-(2-(2,6-dioxopiperidin-3-yl)-1,3-dioxoisoindolin-5-yl)piperidine-4-carboxamido)hexyl)piperidin-4-yl)-1H-pyrazol-4-yl)pyrazine-2-carboxylate] | 2.8 | 48.55 | 56.91 | 71.74 | 48.69 |  | 

Now from value to compound, other results behind:

Kd (MLKL [1]) [nM] | Degradation assay (Degradation %) 1 μM (MLKL [2]) [%] | Degradation assay (Degradation %) 10 μM (MLKL [2]) [%] | Compound | Necroptosis inhibition assay (Rescue %) 1 μM (FADD−/− Jurkat cells) [%] | Necroptosis inhibition assay (Rescue %) 10 μM (FADD−/− Jurkat cells) [%] | Necroptosis inhibition assay (Rescue %) 1 μM (FADD−/− Jurkat cells; FADD−/− Jurkat cells) [%] | Necroptosis inhibition assay (Rescue %) 10 μM (FADD−/− Jurkat cells; FADD−/− Jurkat cells) [%]
2.2 | 87.42 | 81.07 | Nc1ncc(-c2cnn(C3CCN(CCOC4CCN(C(=O)Cc5cccc(NC6=CC(=O)N(C7CCC(=O)NC7=O)C6=O)c5)CC4)CC3)c2)nc1C(=O)O[C@@H](C(=O)Nc1ccc(F)cc1)c1ccccc1 (stereo partly drawn) [TDH-496, (R)-2-((4-fluorophenyl)amino)-2-oxo-1-phenylethyl 3-amino-6-(1-(1-(2-((1-(2-(3-((1-(2,6-dioxopiperidin-3-yl)-2,5-dioxo-2,5-dihydro-1H-pyrrol-3-yl)amino)phenyl)acetyl)piperidin-4-yl)oxy)ethyl)piperidin-4-yl)-1H-pyrazol-4-yl)pyrazine-2-carboxylate] |  |  | 27.23 | 7.85
1.4 | 85.08 | 74.66 | Nc1ncc(-c2cnn(C3CCN(C(=O)CCC4CCN(C(=O)CNc5ccc6nnn(C7CCC(=O)NC7=O)c(=O)c6c5)CC4)CC3)c2)nc1C(=O)O[C@@H](C(=O)Nc1ccc(F)cc1)c1ccccc1 (stereo partly drawn) [TDH-434, (R)-2-((4-fluorophenyl)amino)-2-oxo-1-phenylethyl 3-amino-6-(1-(1-(3-(1-((3-(2,6-dioxopiperidin-3-yl)-4-oxo-3,4-dihydrobenzo[d][1,2,3]triazin-6-yl)glycyl)piperidin-4-yl)propanoyl)piperidin-4-yl)-1H-pyrazol-4-yl)pyrazine-2-carboxylate] |  |  | 28.72 | 20.87
2 | 88.62 | 80.01 | Nc1ncc(-c2cnn(C3CCN(CCOC4CCN(C(=O)CCc5cccc6c5C(=O)N(C5CCC(=O)NC5=O)C6=O)CC4)CC3)c2)nc1C(=O)O[C@@H](C(=O)Nc1ccc(F)cc1)c1ccccc1 (stereo partly drawn) [TDH-378, (R)-2-((4-fluorophenyl)amino)-2-oxo-1-phenylethyl 3-amino-6-(1-(1-(2-((1-(3-(2-(2,6-dioxopiperidin-3-yl)-1,3-dioxoisoindolin-4-yl)propanoyl)piperidin-4-yl)oxy)ethyl)piperidin-4-yl)-1H-pyrazol-4-yl)pyrazine-2-carboxylate] | 49.61 | 28.89 |  | 
2.3 | 68.53 | 80.04 | Nc1ncc(-c2cnn(C3CCN(C(=O)C4CCN(C(=O)CCc5cccc6c5CN(C5CCC(=O)NC5=O)C6=O)CC4)CC3)c2)nc1C(=O)O[C@@H](C(=O)Nc1ccc(F)cc1)c1ccccc1 (stereo partly drawn) [TDH-388, (R)-2-((4-fluorophenyl)amino)-2-oxo-1-phenylethyl 3-amino-6-(1-(1-(1-(3-(2-(2,6-dioxopiperidin-3-yl)-1-oxoisoindolin-4-yl)propanoyl)piperidine-4-carbonyl)piperidin-4-yl)-1H-pyrazol-4-yl)pyrazine-2-carboxylate] | 22.66 | 22.49 |  | 
